Source: US8993756B2 (Merck Sharp & Dohme Corp., priority 2011, dated 2015)
pIC50: −log10 of the molar value.

Key:
JAK2 = JAK2 (Homo sapiens (Human), UniProt O60674); experiment: Jak Biochemical HTRF Assay (JAK2); details: recombinant GST-tagged catalytic domain, [ATP] 8.5 μM
JAK3 = JAK3 (Homo sapiens (Human), UniProt P52333); experiment: Jak Biochemical HTRF Assay (JAK3); details: recombinant GST-tagged catalytic domain, [ATP] 2.9 μM
Chain of JAK3 (P52333 822-1111): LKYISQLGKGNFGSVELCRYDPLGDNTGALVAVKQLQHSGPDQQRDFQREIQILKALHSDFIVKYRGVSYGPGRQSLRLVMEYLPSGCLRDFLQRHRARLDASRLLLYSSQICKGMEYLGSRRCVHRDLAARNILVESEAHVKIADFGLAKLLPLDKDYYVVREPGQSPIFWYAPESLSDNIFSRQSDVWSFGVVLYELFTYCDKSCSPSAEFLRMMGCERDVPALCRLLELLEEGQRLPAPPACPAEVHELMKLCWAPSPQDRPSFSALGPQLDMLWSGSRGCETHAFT

Chain of JAK2 (O60674 849-1124): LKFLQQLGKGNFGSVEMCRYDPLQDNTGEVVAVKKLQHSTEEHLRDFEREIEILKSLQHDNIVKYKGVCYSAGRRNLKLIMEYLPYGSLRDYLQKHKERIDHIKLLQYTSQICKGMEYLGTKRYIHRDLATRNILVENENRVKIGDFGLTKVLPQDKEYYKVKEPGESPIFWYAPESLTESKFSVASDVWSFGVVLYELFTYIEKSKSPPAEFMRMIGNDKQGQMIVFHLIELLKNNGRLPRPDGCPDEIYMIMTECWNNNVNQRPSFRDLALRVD

Row | Compound | pIC50 (JAK2; given as range class) | pIC50 (JAK3; given as range class) | pIC50 (JAK2) | pIC50 (JAK3)
1 | CCOC(=O)c1c[nH]c2ncnc(-c3cccc(-c4nc(Cl)ns4)c3)c12 [Example 7-2, ethyl 4-(3-(3-chloro-1,2,4-thiadiazol-5-yl)phenyl)-7H-pyrrolo[2,3-d]pyrimidine-5-carboxylate] | < 6.30 | 6.30 to 8.00 | – | –
2 | C=C(CN)C(=O)Nc1cccc(-c2ncnc3[nH]cc(C(=O)OCC)c23)c1 [Example 13-2, Ethyl 4-(3-(2-(aminomethyl)acrylamido)phenyl)-7H-pyrrolo[2,3-d]pyrimidine-5-carboxylate] | – | > 8.00 | < 5.83 | –
3 | C=C(C)C(=O)Nc1cc(-c2ncnc3[nH]cc(C(=O)OCC)c23)cn(C)c1=O [Example 4-34, ethyl 4-{1-methyl-5-[(2-methylacryloyl)amino]-6-oxo-1,6-dihydropyridin-3-yl}-7H-pyrrolo[2,3-d]pyrimidine-5-carboxylate] | – | – | < 5.83 | 8.96
4 | CCOC(=O)c1c[nH]c2ncnc(-c3cccc(NC(=O)/C=C/c4cccc(OC)c4)c3)c12 [Example 5-24, ethyl 4-(3-{[(2E)-3-(3-methoxyphenyl)prop-2-enoyl]amino}phenyl)-7H-pyrrolo[2,3-d]pyrimidine-5-carboxylate] | < 6.30 | 6.30 to 8.00 | – | –
5 | CCOC(=O)c1c[nH]c2ncnc(-c3cccc(OC(F)(F)F)c3)c12 [Example 1-26, ethyl 4-[3-(trifluoromethoxy)phenyl]-7H-pyrrolo[2,3-d]pyrimidine-5-carboxylate] | 6.30 to 8.00 | 6.30 to 8.00 | – | –
6 | CCOC(=O)c1c[nH]c2ncnc(-c3cccc(NC(=O)/C=C/c4ccoc4)c3)c12 [Example 5-22, ethyl 4-(3-{[(2E)-3-furan-3-ylprop-2-enoyl]amino}phenyl)-7H-pyrrolo[2,3-d]pyrimidine-5-carboxylate] | < 6.30 | 6.30 to 8.00 | – | –
7 | C=C(CNS(C)(=O)=O)C(=O)Nc1cccc(-c2ncnc3[nH]cc(C(=O)OCC)c23)c1 [Example 13-1, Ethyl 4-(3-(2-(methylsulfonamidomethyl)acrylamido)phenyl)-7H-pyrrolo[2,3-d]pyrimidine-5-carboxylate] | – | – | < 5.83 | 10.28
8 | C=CC(=O)N(C)c1cccc(-c2ncnc3[nH]cc(C(=O)OCC)c23)c1 [Example 12-1, Ethyl 4-(3-(N-methylacrylamido)phenyl)-7H-pyrrolo[2,3-d]pyrimidine-5-carboxylate] | – | – | < 5.83 | 9.89
9 | CCOC(=O)c1c[nH]c2ncnc(-c3cnc(OC)nc3)c12 [Example 1-91, ethyl 4-(2-methoxypyrimidin-5-yl)-7H-pyrrolo[2,3-d]pyrimidine-5-carboxylate] | < 6.30 | 6.30 to 8.00 | – | –
10 | C=C(C)C(=O)Nc1cccc(-c2ncnc3[nH]cc(-c4cnco4)c23)c1 [Example 30, N-(3-(5-(Oxazol-5-yl)-7H-pyrrolo[2,3-d]pyrimidin-4-yl)phenyl)methacrylamide] | – | – | < 5.83 | 8.30
11 | C=C(C)C(=O)Nc1cccc(-c2ncnc3[nH]cc(C4=NCC(C)O4)c23)c1 (stereo not drawn) [Example 28, N-(3-(5-(5-Methyl-4,5-dihydrooxazol-2-yl)-7H-pyrrolo[2,3-d]pyrimidin-4-yl)phenyl)methacrylamide] | < 6.30 | 6.30 to 8.00 | – | –
12 | CCOC(=O)c1c[nH]c2ncnc(C3=CCC(O)CC3)c12 (stereo not drawn) [Example 1-86, ethyl 4-(4-hydroxycyclohex-1-en-1-yl)-7H-pyrrolo[2,3-d]pyrimidine-5-carboxylate] | 6.30 to 8.00 | 6.30 to 8.00 | – | –

Continued, values first:

Row | pIC50 (JAK2; given as range class) | pIC50 (JAK3; given as range class) | pIC50 (JAK2) | pIC50 (JAK3) | Compound
13 | < 6.30 | 6.30 to 8.00 | – | – | CCOC(=O)c1c[nH]c2ncnc(-c3ccc(N4CCN(C)CC4)cc3)c12 [Example 1-85, ethyl 4-[4-(4-methylpiperazin-1-yl)phenyl]-7H-pyrrolo[2,3-d]pyrimidine-5-carboxylate]
14 | < 6.30 | 6.30 to 8.00 | – | – | CCOC(=O)c1c[nH]c2ncnc(-c3cccc(C(N)=O)c3)c12 [Example 1-12, ethyl 4-(3-carbamoylphenyl)-7H-pyrrolo[2,3-d]pyrimidine-5-carboxylate]
15 | – | – | 6.90 | 8.25 | CCOC(=O)c1c[nH]c2ncnc(-c3cccc(O)c3)c12 [Example 1-45, ethyl 4-(3-hydroxyphenyl)-7H-pyrrolo[2,3-d]pyrimidine-5-carboxylate]
16 | – | – | < 5.83 | 8.10 | C=C(C)C(=O)Nc1cccc(-c2ncnc3[nH]cc(-c4ncco4)c23)c1 [Example 22, N-(3-(5-(Oxazol-2-yl)-7H-pyrrolo[2,3-d]pyrimidin-4-yl)phenyl)methacrylamide]
17 | < 6.30 | 6.30 to 8.00 | – | – | CCOC(=O)c1c[nH]c2ncnc(-c3ccc(C(F)(F)F)cc3)c12 [Example 1-36, ethyl 4-[4-(trifluoromethyl)phenyl]-7H-pyrrolo[2,3-d]pyrimidine-5-carboxylate]
18 | – | – | 6.34 | 8.18 | CCOC(=O)c1c[nH]c2ncnc(-c3cccc(NC(=O)/C=C/c4ccccn4)c3)c12 [Example 5-16, ethyl 4-(3-{[(2E)-3-pyridin-2-ylprop-2-enoyl]amino}phenyl)-7H-pyrrolo[2,3-d]pyrimidine-5-carboxylate]
